In test [1] the test system is HEK-293 cells. Nature of the test: HEK-293 cytotoxicity detection (CellTiter-Glo). The test is classed as cell-based. The conditions noted are these: Homo sapiens, 72 h, 72 h incubation, CellTiter-Glo luminescence, read-out: HEK293. Summed up: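 HEK-293 cells exposed 72 h to 8 compounds doses (4-fold dilutions, top stock 5 mM at 500×) in 0.2% DMSO. Viability by CellTiter-Glo luminescence; inhibition normalised to DMSO high control and low control, IC50 from four-parameter curve fit.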
For orientation: ATP-based viability assays read luminescence as a measure of living cells.

The target in test [2] is BTK (Homo sapiens, UniProt Q06187). Description: BTK cell degradation in TMD-8 cells, HTRF assay. The test is classed as cell-based. The following applies: 6 h treatment, IC50 (DC50) of BTK degradation. More on the design: endogenous in cells; host or cells: TMD-8 cells. Summed up:
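TMD-8 cells treated 6 h with 8-dose series (6-fold dilutions, 0.2% DMSO final), then lysed and BTK quantified by HTRF (337/665/620 nm) after overnight antibody incubation at room temperature. Degradation normalized to DMSO high and low controls; DC50 and Dmax from four-parameter fit.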
(In general: TR-FRET usually uses a lanthanide donor and a delayed reading to cut background.)

Sequence of BTK (Q06187 whole entry): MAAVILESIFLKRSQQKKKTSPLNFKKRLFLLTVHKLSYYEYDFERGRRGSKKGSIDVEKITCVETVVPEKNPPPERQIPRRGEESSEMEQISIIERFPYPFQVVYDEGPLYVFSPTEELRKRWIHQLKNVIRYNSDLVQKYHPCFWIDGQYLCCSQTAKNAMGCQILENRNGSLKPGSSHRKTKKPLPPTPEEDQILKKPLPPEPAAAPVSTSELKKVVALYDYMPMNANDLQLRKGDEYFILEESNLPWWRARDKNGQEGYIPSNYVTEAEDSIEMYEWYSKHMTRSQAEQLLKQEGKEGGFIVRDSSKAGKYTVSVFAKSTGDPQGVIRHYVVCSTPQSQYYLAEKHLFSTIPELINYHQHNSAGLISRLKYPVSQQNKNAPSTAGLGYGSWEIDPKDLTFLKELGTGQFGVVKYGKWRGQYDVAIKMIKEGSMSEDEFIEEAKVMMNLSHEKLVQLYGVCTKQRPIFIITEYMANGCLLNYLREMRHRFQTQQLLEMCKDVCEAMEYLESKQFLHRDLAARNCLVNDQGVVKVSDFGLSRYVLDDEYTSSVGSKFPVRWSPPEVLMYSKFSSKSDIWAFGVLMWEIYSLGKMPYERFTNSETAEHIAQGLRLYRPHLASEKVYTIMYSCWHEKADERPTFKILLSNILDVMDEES

Turning to `Cc1c(C(=O)Nc2cc(N3CCCC3)ccn2)ccc(-c2nn3c(c2C(N)=O)Nc2ccc(N4CCN(CC5CCN(c6ccc(N7CCC(=O)NC7=O)cc6)CC5)CC4)cc2CC3)c1F` [Example B49, 7-(4-((1-(4-(2,4-dioxotetrahydropyrimidin-1(2H)-yl)phenyl)piperidin-4-yl)methyl)piperazin-1-yl)-2-(2-fluoro-3-methyl-4-((4-(pyrrolidin-1-yl)pyridin-2-yl)carbamoyl)phenyl)-9,10-dihydro-4H-benzo[d]pyrazolo[1,5-a][1,3]diazepine-3-carboxamide], the IC50 in test [1] was more than 10000 nM. The compound also came in with a DC50 in test [2] of 13.5 nM.

Consider `COc1ccnc(NC(=O)c2ccc(-c3nn4c(c3C(N)=O)Nc3ccc(N5CCN(CC6CCN(c7ccc(N8CCC(=O)NC8=O)cc7)CC6)CC5)cc3CC4)c(F)c2C)c1` [Example B50, 7-(4-((1-(4-(2,4-dioxotetrahydropyrimidin-1(2H)-yl)phenyl)piperidin-4-yl)methyl)piperazin-1-yl)-2-(2-fluoro-4-((4-methoxypyridin-2-yl)carbamoyl)-3-methylphenyl)-9,10-dihydro-4H-benzo[d]pyrazolo[1,5-a][1,3]diazepine-3-carboxamide], for which the IC50 in test [1] was more than 10000 nM. The DC50 in test [2] came out at 2.16 nM.

`CCOc1ccnc(NC(=O)c2ccc(-c3nn4c(c3C(N)=O)Nc3ccc(N5CCN(CC6CCN(c7ccc(N8CCC(=O)NC8=O)cc7)CC6)CC5)cc3CC4)c(F)c2C)c1` [Example B51, 7-(4-((1-(4-(2,4-dioxotetrahydropyrimidin-1(2H)-yl)phenyl)piperidin-4-yl)methyl)piperazin-1-yl)-2-(4-((4-ethoxypyridin-2-yl)carbamoyl)-2-fluoro-3-methylphenyl)-9,10-dihydro-4H-benzo[d]pyrazolo[1,5-a][1,3]diazepine-3-carboxamide]: the IC50 in test [1] was 290 nM. In test [2], this compound registered a DC50 of 7.39 nM.

Regarding `Cc1nc(NC(=O)c2ccc(-c3nn4c(c3C(N)=O)Nc3ccc(N5CCN(CC6CCN(c7ccc(N8CCC(=O)NC8=O)cc7)CC6)CC5)nc3CC4)c(F)c2C)ccc1Cl` [Example B52, 2-(4-((5-chloro-6-methylpyridin-2-yl)carbamoyl)-2-fluoro-3-methylphenyl)-7-(4-((1-(4-(2,4-dioxotetrahydropyrimidin-1(2H)-yl)phenyl)piperidin-4-yl)methyl)piperazin-1-yl)-9,10-dihydro-4H-pyrazolo[1,5-a]pyrido[3,2-d][1,3]diazepine-3-carboxamide], the IC50 in test [1] is more than 10000 nM. In test [2], this compound had a DC50 of 4.06 nM.

For `Cc1nc(NC(=O)c2ccc(-c3nn4c(c3C(N)=O)Nc3ccc(N5CCN(CC6CN(c7ccc(N8CCC(=O)NC8=O)cc7)C6)CC5)cc3CC4)c(F)c2C)ccc1Cl` [Example B53, 2-(4-((5-chloro-6-methylpyridin-2-yl)carbamoyl)-2-fluoro-3-methylphenyl)-7-(4-((1-(4-(2,4-dioxotetrahydropyrimidin-1(2H)-yl)phenyl)azetidin-3-yl)methyl)piperazin-1-yl)-9,10-dihydro-4H-benzo[d]pyrazolo[1,5-a][1,3]diazepine-3-carboxamide], in test [1], the IC50 was more than 10000 nM. It took 18.6 nM to reach half-maximal degradation in test [2] (DC50).

For the compound `Cc1cccc(NC(=O)c2ccc(-c3nn4c(c3C(N)=O)Nc3ccc(N5CCN(CC6CCN(c7ccc(N8CCC(=O)NC8=O)c(C)c7)CC6)CC5)cc3CC4)c(F)c2C)n1` [Example B54, 7-(4-((1-(4-(2,4-dioxotetrahydropyrimidin-1(2H)-yl)-3-methylphenyl)piperidin-4-yl)methyl)piperazin-1-yl)-2-(2-fluoro-3-methyl-4-((6-methylpyridin-2-yl)carbamoyl)phenyl)-9,10-dihydro-4H-benzo[d]pyrazolo[1,5-a][1,3]diazepine-3-carboxamide], in test [1], the IC50 was more than 10000 nM. The same compound came in with a DC50 in test [2] of 3.75 nM.

Consider `Cc1cccc(NC(=O)c2ccc(-c3nn4c(c3C(N)=O)Nc3ccc(N5CCN(CC6CCN(c7cc8c(cc7F)C(=O)N(C7CCC(=O)NC7=O)C8=O)CC6)CC5)cc3CC4)c(F)c2C)n1` (stereo not drawn) [Example B55, 7-(4-((1-(2-(2,6-dioxopiperidin-3-yl)-6-fluoro-1,3-dioxoisoindolin-5-yl)piperidin-4-yl)methyl)piperazin-1-yl)-2-(2-fluoro-3-methyl-4-((6-methylpyridin-2-yl)carbamoyl)phenyl)-9,10-dihydro-4H-benzo[d]pyrazolo[1,5-a][1,3]diazepine-3-carboxamide], for which the IC50 in test [1] was more than 10000 nM. The compound further gave a DC50 in test [2] of 2.42 nM.

Take `Cc1cccc(NC(=O)c2ccc(-c3nn4c(c3C(N)=O)Nc3ccc(N5CCN(CC6CCN(c7cc8c(cc7F)CN(C7CCC(=O)NC7=O)C8=O)CC6)CC5)cc3CC4)c(F)c2C)n1` (stereo not drawn) [Example B56, 7-(4-((1-(2-(2,6-dioxopiperidin-3-yl)-6-fluoro-3-oxoisoindolin-5-yl)piperidin-4-yl)methyl)piperazin-1-yl)-2-(2-fluoro-3-methyl-4-((6-methylpyridin-2-yl)carbamoyl)phenyl)-9,10-dihydro-4H-benzo[d]pyrazolo[1,5-a][1,3]diazepine-3-carboxamide]: the IC50 in test [1] was more than 10000 nM. Moreover, in test [2], the DC50 is 4.31 nM.

With `Cc1cccc(NC(=O)c2ccc(-c3nn4c(c3C(N)=O)Nc3ccc(N5CCN(C6CN(C7CN(c8ccc9c(c8)C(=O)N(C8CCC(=O)NC8=O)C9=O)C7)C6)CC5)cc3CC4)c(F)c2C)n1` (stereo not drawn) [Example B57, 7-(4-(1′-(2-(2,6-dioxopiperidin-3-yl)-1,3-dioxoisoindolin-5-yl)-[1,3′-biazetidin]-3-yl)piperazin-1-yl)-2-(2-fluoro-3-methyl-4-((6-methylpyridin-2-yl)carbamoyl)phenyl)-9,10-dihydro-4H-benzo[d]pyrazolo[1,5-a][1,3]diazepine-3-carboxamide], the IC50 in test [1] is more than 10000 nM. The compound further showed a DC50 in test [2] of 0.526 nM.

In the case of `Cc1cccc(NC(=O)c2ccc(-c3nn4c(c3C(N)=O)Nc3ccc(N5CCN(CC6CCN(c7ccc8c(c7)CN(C7CCC(=O)NC7=O)C8=O)CC6)CC5)cc3CC4)c(F)c2C)n1` (stereo not drawn) [Example B58, 7-(4-((1-(2-(2,6-dioxopiperidin-3-yl)-1-oxoisoindolin-5-yl)piperidin-4-yl)methyl)piperazin-1-yl)-2-(2-fluoro-3-methyl-4-((6-methylpyridin-2-yl)carbamoyl)phenyl)-9,10-dihydro-4H-benzo[d]pyrazolo[1,5-a][1,3]diazepine-3-carboxamide], the IC50 in test [1] is more than 10000 nM. The compound further displayed a DC50 in test [2] of 2.01 nM.

For the compound `Cc1cccc(NC(=O)c2ccc(-c3nn4c(c3C(N)=O)Nc3ccc(N5CCN(CC6CN(c7ccc(N8CCC(=O)NC8=O)cc7)C6)CC5)cc3CC4)c(F)c2C)n1` [Example B59, 7-(4-((1-(4-(2,4-dioxotetrahydropyrimidin-1(2H)-yl)phenyl)azetidin-3-yl)methyl)piperazin-1-yl)-2-(2-fluoro-3-methyl-4-((6-methylpyridin-2-yl)carbamoyl)phenyl)-9,10-dihydro-4H-benzo[d]pyrazolo[1,5-a][1,3]diazepine-3-carboxamide], the IC50 in test [1] is more than 10000 nM. The DC50 in test [2] stood at 1.47 nM.

Regarding `Cc1cccc(NC(=O)c2ccc(-c3nn4c(c3C(N)=O)Nc3ccc(N5CCN(Cc6ccc7c(c6)C(C)(C)C(=O)N7C6CCC(=O)NC6=O)CC5)cc3CC4)c(F)c2C)n1` (stereo not drawn) [Example B60, 7-(4-((1-(2,6-dioxopiperidin-3-yl)-3,3-dimethyl-2-oxoindolin-5-yl)methyl)piperazin-1-yl)-2-(2-fluoro-3-methyl-4-((6-methylpyridin-2-yl)carbamoyl)phenyl)-9,10-dihydro-4H-benzo[d]pyrazolo[1,5-a][1,3]diazepine-3-carboxamide], the IC50 in test [1] is more than 10000 nM. The DC50 in test [2] came to 4.97 nM.

In the case of `Cc1cccc(NC(=O)c2ccc(-c3nn4c(c3C(N)=O)Nc3ccc(N5CCN(CCc6cccc7c6oc(=O)n7C6CCC(=O)NC6=O)CC5)cc3CC4)c(F)c2C)n1` (stereo not drawn) [Example B61, 7-(4-(2-(3-(2,6-dioxopiperidin-3-yl)-2-oxo-2,3-dihydrobenzo[d]oxazol-7-yl)ethyl)piperazin-1-yl)-2-(2-fluoro-3-methyl-4-((6-methylpyridin-2-yl)carbamoyl)phenyl)-9,10-dihydro-4H-benzo[d]pyrazolo[1,5-a][1,3]diazepine-3-carboxamide], in test [1], the IC50 was more than 10000 nM. In test [2], this compound gave a DC50 of 1.09 nM.

Take `Cc1cccc(NC(=O)c2ccc(-c3nn4c(c3C(N)=O)Nc3ccc(N5CCN(CCc6cc(F)c(C7CCC(=O)NC7=O)c(F)c6)CC5)cc3CC4)c(F)c2C)n1` (stereo not drawn) [Example B62, 7-(4-(4-(2,6-dioxopiperidin-3-yl)-3,5-difluorophenethyl)piperazin-1-yl)-2-(2-fluoro-3-methyl-4-((6-methylpyridin-2-yl)carbamoyl)phenyl)-9,10-dihydro-4H-benzo[d]pyrazolo[1,5-a] [1,3]diazepine-3-carboxamide]: the IC50 in test [1] was more than 10000 nM. Besides, the DC50 in test [2] was found to be 1.7 nM.

Consider `Cc1cccc(NC(=O)c2ccc(-c3nn4c(c3C(N)=O)Nc3ccc(N5CCN(CCc6cc(F)c([C@H]7CCC(=O)NC7=O)c(F)c6)CC5)cc3CC4)c(F)c2C)n1` [Example B63, (R)-7-(4-(4-(2,6-dioxopiperidin-3-yl)-3,5-difluorophenethyl)piperazin-1-yl)-2-(2-fluoro-3-methyl-4-((6-methylpyridin-2-yl)carbamoyl)phenyl)-9,10-dihydro-4H-benzo[d]pyrazolo[1,5-a][1,3]diazepine-3-carboxamide], for which the IC50 in test [1] is more than 10000 nM. Moreover, the DC50 in test [2] was 2.32 nM.

The term DC50 denotes the concentration giving 50% degradation. Low values mean a more potent degrader, high ones a less potent degrader.
